{"source": "patent US20220110846A1", "about": "“EMOLLIENT AND CLEANSING AGENT” (Oleon NV, priority 2020, published 2022)", "key": {"[1]": {"system": "Candida albicans, DSM 1386", "test": "Minimum inhibitory concentration (ISO 20776-1:2019)", "format": "cell-based", "method": "(§1) Preservatives used were phenoxyethanol and benzyl alcohol.\n(§2) Micro-organisms used were: • Staphylococcus aureus, DSM 799; • Candida albicans, DSM 1386.\n(§3) Two samples were prepared comprising each 90 wt % of combination 1 and 10 wt % of respectively phenoxyethanol and benzyl alcohol.\n(§4) Two comparative samples comprising 100 wt % of respectively phenoxyethanol and benzyl alcohol were also prepared.\n(§5) To evaluate the boosting antimicrobial property of the combination according to the invention, the minimum inhibitory concentration (MIC) was determined according to a method based on standard ISO 20776-1:2019."}, "[2]": {"system": "Staphylococcus aureus, DSM 799", "test": "Minimum inhibitory concentration (ISO 20776-1:2019)", "format": "cell-based", "method": "as §1, §2, §3, §4, §5"}}}
{"smiles": "OCc1ccccc1", "note": "[Benzyl alcohol, benzyl alcohol]", "values": [{"measurement": "MIC, Candida albicans", "setting": "[1]", "result": 0.30, "unit": "%"}, {"measurement": "MIC, Staphylococcus aureus", "setting": "[2]", "result": 0.40, "unit": "%"}]}
